Results: US11274090B2, “P300/CBP HAT inhibitors” (Constellation Pharmaceuticals, Inc., priority 2018, dated 2022)

Molecular target: p300 HAT domain (residues 1287-1666) (Homo sapiens (Human), UniProt Q09472)
Test: p300 HAT SPA assay (scintillation proximity assay, acetylation of biotinylated H3(1-21) peptide)
Format: biochemical
Conditions: average of at least 2 replicate titrations
Procedure, shortened: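 Purified p300 HAT domain reaction transferred to streptavidin plates to capture biotinylated H3(1-21) peptide, incubated 1.5 hr at RT, and read by scintillation proximity. IC50 values derived from concentration-response data.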

Sequence of p300 HAT domain (residues 1287-1666) (Q09472 1287-1666): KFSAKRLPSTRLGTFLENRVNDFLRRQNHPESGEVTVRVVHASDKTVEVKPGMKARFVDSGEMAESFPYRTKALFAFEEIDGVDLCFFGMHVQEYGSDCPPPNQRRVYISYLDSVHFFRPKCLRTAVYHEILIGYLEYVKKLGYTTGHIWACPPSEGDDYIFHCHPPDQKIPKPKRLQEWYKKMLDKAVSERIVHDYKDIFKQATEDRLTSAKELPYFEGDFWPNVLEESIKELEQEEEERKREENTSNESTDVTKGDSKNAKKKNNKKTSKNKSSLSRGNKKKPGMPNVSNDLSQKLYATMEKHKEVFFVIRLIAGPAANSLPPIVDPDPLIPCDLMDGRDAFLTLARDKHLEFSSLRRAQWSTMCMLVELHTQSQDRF

Compound | IC50 [nM]
CC(CNC(C(=O)Nc1ccc(-c2cnn(CC(F)(F)F)c2)cn1)c1ccccc1)c1ccc(C#N)cc1 (single isomer, unassigned) [83 Isomer 2] | > 2000
COC1CN(c2ccc(NC(=O)C(NCC(C)c3ccc(C#N)cc3)c3ccccc3)nc2)C1 (single isomer, unassigned) [32 Isomer 2] | 18.8
Cn1cc(-c2ccc(NC(=O)C(NCCc3ccc(C#N)cn3)c3ccccc3)nc2)cn1 (single isomer, unassigned) [142 Isomer 1] | > 2000
Cc1ncc(-c2ccc(NC(=O)[C@@H](NC[C@@H](C)c3ccc(C#N)cc3)c3ccccc3)nc2)cn1 (single isomer, unassigned; isomer 1) [6 Isomer 1] | 1680
CC1CN(c2ccc(NC(=O)C(NC[C@@H](C)c3ccc(C#N)cc3)c3ccccc3)nc2)CC(=O)N1C (single isomer, unassigned) [124 Isomer 2] | 768
CCN1CCN(c2ccc(NC(=O)C(NCCc3ccc(C#N)cc3)c3ccccc3)nc2)C1=O (single isomer, unassigned) [76 Isomer 2] | > 2000
CO[C@@H]1CCN(c2ccc(NC(=O)C(NCC(C)c3ccc(C#N)cc3)c3ccccc3)nc2)C1 (single isomer, unassigned) [92 Isomer 4] | > 2000
Cn1cc(-c2ccc(NC(=O)C(NCCc3ccc(C#N)cc3)c3ccc(Cl)cc3)nc2)cn1 (single isomer, unassigned) [67 Isomer 1] | > 2000
CC(CNC(C(=O)Nc1ccc(-c2cnn(C3CCC3)c2)cn1)c1ccccc1)c1ccc(C#N)cc1 (single isomer, unassigned) [52 Isomer 3] | 31.1
CC1C(=O)N(C)CCN1c1ccc(NC(=O)C(NC[C@@H](C)c2ccc(C#N)cc2)c2ccccc2)nc1 (single isomer, unassigned) [126 Isomer 2] | > 2000
Cn1cc(-c2ccc(NC(=O)C(NCCc3ccc(C(F)(F)F)nc3)c3ccccc3)nc2)cn1 (single isomer, unassigned) [140 Isomer 2] | > 2000
O=C(Nc1ccc(-c2cccnn2)cc1)C(NCCc1ccc(Cl)cc1)c1ccccc1 (single isomer, unassigned) [10 Isomer 2] | 580
C[C@H](CNC(C(=O)Nc1ccc(-c2cnn(CC(N)=O)c2)cn1)c1ccccc1)c1ccc(C#N)cc1 (single isomer, unassigned) [147 Isomer 1] | 1880
CC1C(=O)N(C)CCN1c1ccc(NC(=O)C(NC[C@@H](C)c2ccc(C#N)cc2)c2ccccc2)nc1 (single isomer, unassigned) [126 Isomer 4] | 22
N#Cc1ccc(CCNC(C(=O)Nc2ccc(N3CCN(CC(F)(F)F)CC3)cn2)c2ccccc2)cc1 (single isomer, unassigned) [40 Isomer 1] | 190
(S,R)-, (R,S)-, (S,S)-, (R,R)-(2-((2-(4-cyanophenyl)propyl)amino)-N-(5-(1-(difluoromethyl)-1H-pyrazol-4-yl)pyridin-2-yl)-2-phenylacetamide [20 Isomer 3] | 1630
CN1CCN(c2ccc(NC(=O)C(NCCc3ccc(C#N)cc3)c3ccccc3)nc2)CCC1=O (single isomer, unassigned) [71 Isomer 1] | 86.9
CC1(C)CCN(c2ccc(NC(=O)C(NCCc3ccc(C#N)cc3)c3ccccc3)nc2)CC1 (single isomer, unassigned) [65 Isomer 1] | 477
N#Cc1ccc(CCNC(C(=O)Nc2ccc(N3CCC(F)(F)C3)cn2)c2ccccc2)cc1 (single isomer, unassigned) [77 Isomer 2] | 1980

Compound | IC50 [nM]
Cn1cc(-c2ccc(NC(=O)C(NCCc3ccc(C#N)cc3)c3cccc(C(F)(F)F)c3)nc2)cn1 (single isomer, unassigned) [117 Isomer 1] | > 2000
Cn1cc(-c2ccc(NC(=O)C(NCCc3ccc(Cl)cc3)c3ccccc3)nc2)cn1 (single isomer, unassigned) [55 Isomer 2] | > 5000
CC(CNC(C(=O)Nc1ccc(-c2cnn(C(C)(C)CO)c2)cn1)c1ccccc1)c1ccc(C#N)cc1 (single isomer, unassigned) [8 Isomer 2] | 1350
Cn1cc(-c2ccnc(NC(=O)C(NCCc3ccc(C#N)cc3)c3ccccc3)c2)cn1 (single isomer, unassigned) [122 Isomer 2] | 48900
CC(CNC(C(=O)Nc1ccc(-c2cnn(C(F)F)c2)cn1)c1cnn(C)c1)c1ccc(C#N)cc1 (single isomer, unassigned) [128 Isomer 3] | > 2000
(R, S)- and (S, S)-2-((2- (4- cyanophenyl)propyl)ami- no)-N-(5-(1,3-dimethyl- 1H-pyrazol-4-yl)pyridin- 2-yl)-2-phenylacetamide [113 Isomer 1] | 1800
Cn1cc(-c2ccc(NC(=O)C(NCCc3ccc(C#N)cc3)C3CCCCC3)nc2)cn1 (single isomer, unassigned) [89 Isomer 1] | > 2000
Cn1cc(-c2ccc(NC(=O)C(NCCc3ccc(S(N)(=O)=O)cc3)c3ccccc3)cc2)cn1 (single isomer, unassigned) [4 Isomer 2] | 1370
C[C@H](CNC(C(=O)Nc1ccc(-c2cnn(C)c(=O)c2)cn1)c1ccccc1)c1ccc(C#N)cc1 (single isomer, unassigned) [139 Isomer 2] | > 2000
Cn1cc(-c2ccc3c(c2)CCCN3C(=O)[C@@H](NCCc2ccc(C#N)cc2)c2ccccc2)cn1 (single isomer, unassigned) [151 Isomer 2] | > 5000
CCCCCCc1cccc(C(NCCc2ccc(C#N)cc2)C(=O)Nc2ccc(-c3cnn(C)c3)cn2)c1 (single isomer, unassigned) [118 Isomer 2] | 1900
CC(CNC(C(=O)Nc1ccc(N2CCN(C)S2(=O)=O)cn1)c1ccccc1)c1ccc(C#N)cc1 (single isomer, unassigned) [108 Isomer 4] | > 2000
Cn1cc(-c2ccc(NC(=O)C(NCCc3ccc(C#N)cc3)c3ccccc3Cl)nc2)cn1 (single isomer, unassigned) [88 Isomer 1] | 65.4
Cn1cc(-c2ccc(NC(=O)C(NCCc3ccc(C#N)cc3)c3cccc(Cl)c3)nc2)cn1 (single isomer, unassigned) [79 Isomer 1] | > 2000
C[C@H](CNC(C(=O)Nc1ccc(-c2cnn(CC(=O)N3CCCC3)c2)cn1)c1ccccc1)c1ccc(C#N)cc1 (single isomer, unassigned) [132 Isomer 1] | 932
CC(CNC(C(=O)Nc1ccc(-c2cnn(C)c2)cc1)c1ccccc1)c1ccc(C#N)cc1 (single isomer, unassigned) [82 Isomer 2] | > 5000
Cc1ncn(-c2ccc(NC(=O)C(NCCc3ccc(C#N)cc3)c3ccccc3)nc2)n1 (single isomer, unassigned) [73 Isomer 1] | > 2000
Cc1ncn(-c2ccc(NC(=O)C(NCCc3ccc(C#N)cc3)c3ccccc3)nc2)n1 (single isomer, unassigned) [73 Isomer 2] | 197
Cc1cc(C#N)nn1CCNC(C(=O)Nc1ccc(-c2cnn(C)c2)cn1)c1ccccc1 (single isomer, unassigned) [145 Isomer 1] | 783

Compound | IC50 [nM]
Cn1cc(-c2ccnc(NC(=O)C(NCCc3ccc(C#N)cc3)c3ccccc3)c2)cn1 (single isomer, unassigned) [122 Isomer 1] | > 60000
CC(CNC(C(=O)Nc1ccc(-c2cnn(C(C)(C)CO)c2)cn1)c1ccccc1)c1ccc(C#N)cc1 (single isomer, unassigned) [8 Isomer 4] | 19.6
Cn1cc(-c2cnc(NC(=O)C(NCCc3ccc(C#N)cc3)c3ccccc3)cn2)cn1 (single isomer, unassigned) [56 Isomer 2] | > 5000
N#Cc1ccc(CCNC(C(=O)Nc2ccc(C3CC3)cn2)c2ccccc2)cc1 (single isomer, unassigned) [42 Isomer 2] | 3000
CC(CNC(C(=O)Nc1ccc(-c2cnn(C)c2)cn1)c1ccccc1)c1ccc(C#N)cc1F (single isomer, unassigned) [90 Isomer 3] | 1600
CC(CNC(C(=O)Nc1ccc(N2CCN(C)C(=O)C2)cn1)c1cnn(C)c1)c1ccc(C#N)cc1 (single isomer, unassigned) [136 Isomer 2] | > 2000
CC(CNC(C(=O)Nc1ccc(-c2cnn(C)c2)cn1)c1cnn(C)c1)c1ccc(C#N)cc1 (single isomer, unassigned) [127 Isomer 1] | > 2000
Cn1cc(-c2ccc(NC(=O)C(NCCc3ccc(C#N)cc3F)c3ccccc3)nc2)cn1 (single isomer, unassigned) [29 Isomer 2] | 2760
COc1ccc(C(NCCc2ccc(C#N)cc2)C(=O)Nc2ccc(-c3cnn(C)c3)cn2)cc1 (single isomer, unassigned) [63 Isomer 2] | > 2000
Cc1nc(NC(=O)C(NCC(C)c2ccc(C#N)cc2)c2ccccc2)ccc1-c1cnn(C)c1 (single isomer, unassigned) [39 Isomer 2] | > 2000
CC(CNC(C(=O)Nc1ccc(-c2cnn(CC(F)(F)F)c2)cn1)c1ccccc1)c1ccc(C#N)cc1 (single isomer, unassigned) [83 Isomer 4] | 20.6
CCN(CC)C(=O)C1CCN(c2ccc(NC(=O)C(NCCc3ccc(C#N)cc3)c3ccccc3)nc2)CC1 (single isomer, unassigned) [64 Isomer 1] | > 2000
CC(CNC(C(=O)Nc1ccc(-c2cn(C)nn2)cn1)c1ccccc1)c1ccc(C#N)cc1 (single isomer, unassigned) [100 Isomer 3] | > 2000
Cc1ncc(C(C)CNC(C(=O)Nc2ccc(-c3cnn(C)c3)cn2)c2ccccc2)cn1 (single isomer, unassigned) [150 Isomer 2] | > 2000
CC(CNC(C(=O)Nc1ccc(-c2cnn(C3CCC3)c2)cn1)c1ccccc1)c1ccc(C#N)cc1 (single isomer, unassigned) [52 Isomer 4] | > 2000
Cn1cc(-c2ccc(NC(=O)C(NCCc3ccc(Cl)cc3C#N)c3ccccc3)nc2)cn1 (single isomer, unassigned) [94 Isomer 2] | > 2000
N#Cc1ccc(CCNC(C(=O)Nc2ccc(N3CCC(F)(F)CC3)cn2)c2ccccc2)cc1 (single isomer, unassigned) [38 Isomer 2] | > 2000
Cc1cn(-c2ccc(NC(=O)C(NCCc3ccc(C#N)cc3)c3ccccc3)nc2)nn1 (single isomer, unassigned) [78 Isomer 1] | 296
